Measurements: PubChem BioAssay AID493040 (Abbott Labs, 2011)
Calls of active or inactive are those of the source. No rule for the calls is given here.

Key:
Experiment in all cases: PubChem AID 493040
[1] = biological target: Rho-associated protein kinase 2 (Homo sapiens) (UniProt O75116); conditions: kinase panel binding, pKi; ROCK2
[2] = biological target: Cyclin-dependent kinase 2 (Homo sapiens) (UniProt P24941); conditions: kinase panel binding, pKi; CDK2
[3] = biological target: Mitogen-activated protein kinase 14 (Homo sapiens) (UniProt Q16539); conditions: kinase panel binding, pKi; MAPK14
Chain of Mitogen-activated protein kinase 14 (Homo sapiens) (Q16539 whole entry, looked up): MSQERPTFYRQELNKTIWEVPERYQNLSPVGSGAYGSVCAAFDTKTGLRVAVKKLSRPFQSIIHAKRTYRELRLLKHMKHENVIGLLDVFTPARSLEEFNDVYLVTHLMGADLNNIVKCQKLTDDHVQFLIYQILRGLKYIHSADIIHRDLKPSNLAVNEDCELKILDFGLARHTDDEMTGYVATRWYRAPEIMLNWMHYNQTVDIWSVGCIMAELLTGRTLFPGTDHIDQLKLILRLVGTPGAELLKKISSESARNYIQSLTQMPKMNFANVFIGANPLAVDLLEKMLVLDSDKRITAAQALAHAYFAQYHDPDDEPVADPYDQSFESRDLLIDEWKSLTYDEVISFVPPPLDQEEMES

[4] = biological target: Serine/threonine-protein kinase Sgk2 (Homo sapiens) (UniProt Q9HBY8); conditions: kinase panel binding, pKi; SGK
Chain of Serine/threonine-protein kinase Sgk2 (Homo sapiens) (Q9HBY8 whole entry, looked up): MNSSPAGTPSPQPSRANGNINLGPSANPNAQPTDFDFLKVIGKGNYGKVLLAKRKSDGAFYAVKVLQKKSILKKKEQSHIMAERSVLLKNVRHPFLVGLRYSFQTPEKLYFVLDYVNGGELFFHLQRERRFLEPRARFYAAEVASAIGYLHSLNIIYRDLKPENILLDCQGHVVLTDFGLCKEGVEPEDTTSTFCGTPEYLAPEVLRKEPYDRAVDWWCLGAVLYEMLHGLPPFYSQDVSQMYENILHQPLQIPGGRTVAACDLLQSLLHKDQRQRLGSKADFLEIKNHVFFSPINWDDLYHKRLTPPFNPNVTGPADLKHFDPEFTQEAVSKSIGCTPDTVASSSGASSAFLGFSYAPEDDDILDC

[5] = biological target: Cell division cycle 7-related protein kinase (Homo sapiens) (UniProt O00311); conditions: kinase panel binding, pKi; CDC7
Chain of Cell division cycle 7-related protein kinase (Homo sapiens) (O00311 whole entry, looked up): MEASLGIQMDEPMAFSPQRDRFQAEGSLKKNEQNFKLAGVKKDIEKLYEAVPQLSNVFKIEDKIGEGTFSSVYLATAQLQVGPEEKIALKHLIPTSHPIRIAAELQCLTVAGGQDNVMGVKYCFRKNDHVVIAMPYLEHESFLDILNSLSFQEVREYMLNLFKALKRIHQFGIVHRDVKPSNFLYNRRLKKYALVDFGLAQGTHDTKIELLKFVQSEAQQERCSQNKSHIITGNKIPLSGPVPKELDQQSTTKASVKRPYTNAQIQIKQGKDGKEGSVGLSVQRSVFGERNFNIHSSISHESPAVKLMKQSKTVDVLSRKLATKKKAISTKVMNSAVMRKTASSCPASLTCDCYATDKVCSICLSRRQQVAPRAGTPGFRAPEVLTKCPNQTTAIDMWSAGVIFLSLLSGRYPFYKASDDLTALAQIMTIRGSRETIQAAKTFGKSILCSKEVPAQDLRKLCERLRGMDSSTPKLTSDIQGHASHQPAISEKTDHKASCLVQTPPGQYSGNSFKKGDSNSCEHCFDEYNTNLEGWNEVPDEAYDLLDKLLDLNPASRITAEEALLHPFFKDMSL

[6] = biological target: Cyclin-dependent kinase 5 (Homo sapiens) (UniProt Q00535); conditions: kinase panel binding, pKi; CDK5
Chain of Cyclin-dependent kinase 5 (Homo sapiens) (Q00535 whole entry, looked up): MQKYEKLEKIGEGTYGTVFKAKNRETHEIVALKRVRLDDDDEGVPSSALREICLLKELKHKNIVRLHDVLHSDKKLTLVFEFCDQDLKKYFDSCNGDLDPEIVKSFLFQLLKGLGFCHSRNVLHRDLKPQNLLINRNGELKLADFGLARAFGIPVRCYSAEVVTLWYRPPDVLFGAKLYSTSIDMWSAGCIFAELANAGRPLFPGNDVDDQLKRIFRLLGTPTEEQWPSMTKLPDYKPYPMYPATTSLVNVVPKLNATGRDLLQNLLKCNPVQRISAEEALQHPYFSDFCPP

Chain of Rho-associated protein kinase 2 (Homo sapiens) (O75116 whole entry, looked up): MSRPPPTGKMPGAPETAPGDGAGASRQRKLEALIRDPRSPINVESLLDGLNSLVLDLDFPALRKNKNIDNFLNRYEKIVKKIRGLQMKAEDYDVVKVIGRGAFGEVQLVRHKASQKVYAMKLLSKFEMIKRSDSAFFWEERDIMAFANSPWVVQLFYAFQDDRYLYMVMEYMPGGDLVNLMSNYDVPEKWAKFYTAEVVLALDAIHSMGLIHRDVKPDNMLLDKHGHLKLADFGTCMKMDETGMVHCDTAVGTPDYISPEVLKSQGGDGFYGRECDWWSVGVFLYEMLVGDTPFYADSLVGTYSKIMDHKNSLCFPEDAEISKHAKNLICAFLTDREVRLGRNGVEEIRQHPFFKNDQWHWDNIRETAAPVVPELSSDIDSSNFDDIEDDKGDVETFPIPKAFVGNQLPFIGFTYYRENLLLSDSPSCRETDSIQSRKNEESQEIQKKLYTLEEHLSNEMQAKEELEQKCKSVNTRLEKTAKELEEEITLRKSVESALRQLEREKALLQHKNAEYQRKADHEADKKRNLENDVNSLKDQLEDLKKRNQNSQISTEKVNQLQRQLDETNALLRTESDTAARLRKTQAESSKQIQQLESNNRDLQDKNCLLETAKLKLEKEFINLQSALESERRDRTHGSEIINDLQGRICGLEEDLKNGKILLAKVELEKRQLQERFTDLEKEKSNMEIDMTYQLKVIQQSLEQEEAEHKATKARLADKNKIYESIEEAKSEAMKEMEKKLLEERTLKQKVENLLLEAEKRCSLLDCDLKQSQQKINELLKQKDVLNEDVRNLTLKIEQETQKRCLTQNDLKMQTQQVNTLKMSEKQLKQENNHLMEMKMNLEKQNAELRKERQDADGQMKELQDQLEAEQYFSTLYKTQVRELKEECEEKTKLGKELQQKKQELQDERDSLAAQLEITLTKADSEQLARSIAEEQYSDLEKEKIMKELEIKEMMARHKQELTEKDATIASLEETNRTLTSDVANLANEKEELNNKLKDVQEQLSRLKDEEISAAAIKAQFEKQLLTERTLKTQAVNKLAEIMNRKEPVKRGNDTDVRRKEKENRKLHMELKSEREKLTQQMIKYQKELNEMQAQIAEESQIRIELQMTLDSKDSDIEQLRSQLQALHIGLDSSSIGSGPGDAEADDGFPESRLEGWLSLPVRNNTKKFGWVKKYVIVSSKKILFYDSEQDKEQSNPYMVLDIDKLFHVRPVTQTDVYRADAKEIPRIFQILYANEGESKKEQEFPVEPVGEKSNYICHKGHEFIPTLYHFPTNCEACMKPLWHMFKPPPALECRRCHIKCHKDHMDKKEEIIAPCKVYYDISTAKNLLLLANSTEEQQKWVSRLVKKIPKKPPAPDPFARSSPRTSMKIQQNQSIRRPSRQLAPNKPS

| SMILES | Ki [1] | Ki [2] | other results |
| --- | --- | --- | --- |
| Cc1ccc(Nc2nccc(Nc3ccccc3C(=O)O)n2)cc1F | > 7940 nM (inactive) | 398 nM |  |
| O=C(Nc1ccccc1)Nc1nccs1 |  | 20000 nM |  |
| NC(=O)c1ccc2c(ccn2-c2cccc(Cl)c2)c1 | 2510 nM |  |  |
| CC(C)(C)c1cc(NC(=O)Nc2cccc3ccccc23)n(-c2cccc(C(=O)N(CCN)CCO)c2)n1 |  |  | Ki [3]: 631 nM |
| CC(=O)n1ncc2cc(N)ccc21 |  |  | Ki [3]: 7940 nM |
| CCOC(=O)c1c(NC(=O)C2C(C)(C)C2(C)C)sc2cnccc12 |  | 1000 nM |  |
| Nc1n[nH]c2ccc(-c3cc(Cc4ccccc4)no3)cc12 | 25.1 nM | 200 nM |  |
| CN(c1ccccc1-c1ccc2c(c1)Nc1ccccc1NC2=O)S(C)(=O)=O |  | 2000 nM |  |
| Fc1cccc(-c2c[nH]c3ncccc23)c1 | 316 nM | 1260 nM |  |
| Cc1[nH]nc2ccc(-c3cncc(OCCNS(C)(=O)=O)c3)cc12 | 158 nM | 316 nM |  |
| NC(=O)c1ccc2nc(-c3ccc([N+](=O)[O-])o3)cn2c1 |  |  | Ki [3]: 3160 nM |
| CCN(CCN(C)C)C(=O)c1cccc(-n2nc(C(C)(C)C)cc2NC(=O)Nc2cccc3ccccc23)c1 |  |  | Ki [3]: 794 nM |
| O=C1CN=C(c2cccc(Cl)c2)c2c(sc3c2CCCC3)N1 |  | 7940 nM |  |
| Oc1cccc(-c2nc(N3CCOCC3)c3oc4ncccc4c3n2)c1 |  |  | Ki [4]: > 7940 nM (inactive) |
| CCCCOc1cc(-c2ccncc2)cc2[nH]nc(N)c12 | 126 nM | 1000 nM |  |
| Cc1ccccc1-c1c(-c2ccc3n[nH]c(C)c3c2)nnn1Cc1ccccc1 |  | 3.98 nM |  |
| CCCCNc1cc(-c2c[nH]c3ncccc23)ncn1 | 20 nM | 200 nM |  |
| c1cnc2[nH]cc(-c3ccnc(NCC4CCCCC4)n3)c2c1 | 6.31 nM | 3.98 nM |  |
| CC(C)(C)c1cc(NC(=O)C(=O)c2cccc3ccccc23)n(-c2ccc(OCC(=O)NCCO)cc2)n1 |  |  | Ki [3]: 631 nM |
| CCOC(=O)c1cn(-c2ccc(O)cc2C)c2cc(-c3ccncc3)ccc2c1=O | 31.6 nM | 3980 nM | Ki [4]: > 10000 nM (inactive) |
| O=C1Nc2ccccc2Nc2cc(-c3ccncc3F)ccc21 | 126 nM | 398 nM |  |
| Nc1n[nH]c2ccc(-c3nnn(Cc4ccccc4)c3C3CC3)cc12 | 20 nM | 79.4 nM |  |
| Cc1c(C#N)c2nc3ccccc3n2c(=O)c1=CO | > 7940 nM (inactive) |  | Ki [4]: > 10000 nM (inactive) |

| SMILES | Ki [1] | Ki [2] | other results |
| --- | --- | --- | --- |
| Fc1ccc2c(c1)-c1[nH]ncc1CS2 |  | 20000 nM |  |
| NC(=O)c1cccc2[nH]c(-c3cccc(NCCN4CCCC4)n3)nc12 |  |  | Ki [4]: > 10000 nM (inactive) |
| CC(C)(C)c1cc(NC(=O)C(=O)c2cccc3ccccc23)n(-c2ccc(OCCC(N)=O)cc2)n1 |  |  | Ki [3]: 631 nM |
| CC(C)(C)Oc1cc(-c2ccncc2)cc2[nH]nc(N)c12 | 50.1 nM | 126 nM |  |
| O=c1cc(-c2cccc(F)c2)nc2c(-c3ccc(F)cc3)c[nH]n12 | > 7940 nM (inactive) |  |  |
| CCn1c(-c2nonc2N)nc2cnc(Oc3cccc(NC(=O)c4ccc(OCCN5CCOCC5)cc4)c3)cc21 |  | 794 nM | Ki [4]: 200 nM |
| Oc1ccc(-c2nc(-c3ccc(F)cc3)c(-c3ccncc3)[nH]2)cc1 | > 3980 nM (inactive) |  | Ki [4]: > 6310 nM (inactive) |
| O=C1Nc2ccccc2Nc2cc(-c3ccncc3Cl)ccc21 | 631 nM | 501 nM |  |
| CCCCNc1c(-c2ccc3[nH]ncc3c2)nc2ncccn12 | 63.1 nM | 398 nM |  |
| CCNC(=O)c1[nH]nc(-c2cc(Cl)c(O)cc2O)c1-c1ccc(OC)cc1 | 2510 nM | 6310 nM |  |
| Cc1cc(=O)n2[nH]cc(C(=O)NCc3ccccc3)c2n1 | 2510 nM |  |  |
| COc1ccc(C=C2SC(=Nc3ccccc3)NC2=O)cc1OC |  |  | Ki [4]: > 10000 nM (inactive) |
| CC(C)(C)c1cc(NC(=O)c2cc3ccccc3s2)n(-c2ccc(OCC(=O)O)cc2)n1 |  |  | Ki [3]: 2510 nM |
| O=c1ncn2nc(Sc3ccc(F)cc3F)ccc2c1-c1c(Cl)cccc1Cl |  |  | Ki [4]: > 7940 nM (inactive) |
| O=C1N=c2ccc(Br)cc2=C1c1sc(=S)[nH]c1O |  |  | Ki [4]: 2000 nM |
| OCCNc1cc(-c2c[nH]c3ncccc23)cc(Cl)n1 | 20 nM | 316 nM |  |
| Cc1cc(=O)[nH]c2n[nH]c(-c3cccc(C(F)(F)F)c3)c12 |  |  | Ki [3]: 398 nM |
| CC(C)CC(NC(=O)c1cccc(-n2nc(C(C)(C)C)cc2NC(=O)Nc2cccc3ccccc23)c1)C(N)=O (centres undefined) |  |  | Ki [3]: 794 nM |
| O=c1cc(-c2ccc(F)cc2)nc2c(-c3ccc(F)cc3)c[nH]n12 | > 7940 nM (inactive) |  |  |
| NC(=O)c1ccc(Nc2ncnc3[nH]cc(-c4ccccc4)c23)cc1 | 251 nM | 501 nM |  |
| Cc1sc2[nH]c(=O)n3nc(-c4ccncc4)nc3c2c1C | 3980 nM |  |  |
| CCn1c(=C(C#N)C(=O)O)sc(=CNc2ccccc2)c1=O |  |  | Ki [4]: 3980 nM |
| COCC(C)Nc1cc(-c2c[nH]c3ncccc23)cc(Cl)n1 (centres undefined) | 7.94 nM | 158 nM |  |

| SMILES | Ki [1] | Ki [2] | other results |
| --- | --- | --- | --- |
| CCOC(=O)c1c[nH]n2c(=O)cc(-c3ccncc3)nc12 | 2000 nM |  |  |
| O=C(NCc1ccccc1)c1c[nH]n2c(=O)cc(-c3ccncc3)nc12 | > 7940 nM (inactive) | 158 nM |  |
| Cc1[nH]nc2ccc(-c3cncc(OCCN(C)S(C)(=O)=O)c3)cc12 | 100 nM | 501 nM |  |
| c1ccc(Cn2cc(-c3ccc4[nH]nc(-c5cn(Cc6ccccc6)nn5)c4c3)nn2)cc1 | 126 nM | 5.01 nM |  |
| c1ccc(Cn2nnc(-c3ccc4[nH]ncc4c3)c2-c2ccccc2)cc1 |  | 63.1 nM |  |
| O=C(O)c1ccccc1Nc1ccnc(NCc2cccc(O)c2)n1 | > 7940 nM (inactive) |  |  |
| NC(=O)c1ccc(-c2nc(-c3ccc4c(c3)OCO4)c(-c3ccccn3)[nH]2)cc1 | > 3980 nM (inactive) |  |  |
| CCCCCCCCCCCCOc1ccc(N=C(N)N)cc1N=C(N)N | 3160 nM | 5010 nM | Ki [4]: > 10000 nM (inactive) |
| CN(C)c1ccc(-c2c(-c3ccc4[nH]nc(N)c4c3)nnn2Cc2ccccc2)cc1 | 20 nM | 126 nM | Ki [5]: 0.398 nM |
| CCCn1c(=O)c2[nH]c(-c3cnn(Cc4cccc(C(F)(F)F)c4)c3)nc2n(CC)c1=O |  | 5010 nM |  |
| O=c1cc(-c2ccncc2)nc(NCc2cc(F)cc(F)c2)[nH]1 | 794 nM | 794 nM |  |
| c1ccc(-c2ncc3ccccn23)cc1 |  |  | Ki [3]: 50100 nM |
| CC(C)(O)CNc1cc(-c2c[nH]c3ncccc23)cc(Cl)n1 | 15.8 nM | 251 nM |  |
| CCCCNc1cc(-c2ccncc2)cc2[nH]nc(N)c12 | 63.1 nM | 200 nM |  |
| NC(=O)c1ccc(-c2ccncc2)cc1NCc1cccc(F)c1 | 5010 nM | 3160 nM |  |
| O=C(Nc1ccc(CO)cc1)c1cnn2c(-c3ccccc3)ccnc12 |  |  | Ki [4]: > 10000 nM (inactive) |
| Cc1cccc(CNc2cc(-c3c[nH]c4ncccc34)cc(Cl)n2)c1C | 31.6 nM | 200 nM |  |
| Cc1cc(=O)[nH]nc1-c1ccc(NC(=O)Nc2cc(C(F)(F)F)ccc2F)c(Cl)c1 |  |  | Ki [3]: 100 nM |
| Cc1cccc(CNc2cc(-c3c[nH]c4ncccc34)ncn2)c1 | 12.6 nM | 39.8 nM |  |
| C=CCNc1cc(-c2c[nH]c3ncccc23)cc(Cl)n1 | 12.6 nM | 100 nM |  |
| NC(=O)c1ccc(-c2ccnc(N)n2)cc1N1CCCCC1 | 1580 nM | 1260 nM |  |
| COCCNc1cc(-c2c[nH]c3ncccc23)cc(Cl)n1 | 5.01 nM | 251 nM |  |
| COc1cc2c(Oc3ccc4[nH]c(C)cc4c3F)ncnc2cc1OCCCN1CCCC1 |  |  | Ki [4]: > 10000 nM (inactive) |

| SMILES | Ki [1] | Ki [2] | other results |
| --- | --- | --- | --- |
| CC(C)(CO)CCCNc1cc(-c2c[nH]c3ncccc23)cc(Cl)n1 | 10 nM | 100 nM |  |
| Nc1ccc2cc(NCCc3ccccc3)cc(Nc3ncccn3)c2n1 |  |  | Ki [3]: 2510 nM |
| Cn1cc(-c2ccccc2)c2nc(-c3ccncc3)cc(=O)n21 | 3160 nM |  |  |
| NC(=O)c1ccccc1Nc1nc(Nc2ccccc2)ncc1C(F)(F)F | 501 nM |  |  |
| NC1CCCCC1Nc1nccc(Nc2ccccc2C(=O)O)n1 (centres undefined) | > 7940 nM (inactive) |  |  |
| CS(=O)(=O)Nc1ccccc1-c1ccc2c(c1)Nc1ccccc1NC2=O |  | 6310 nM |  |
| O=C(O)c1ccccc1Nc1ncnc(Nc2ccc3cn[nH]c3c2)n1 | > 5010 nM (inactive) | 316 nM | Ki [6]: 251 nM |
| O=C1Nc2ccccc2Nc2cc(-c3ccncc3)ccc21 | 316 nM | 1000 nM |  |
| COc1ccccc1C(=O)Nc1n[nH]c2ccc(-c3cn(Cc4ccccc4)nn3)cc12 | > 7940 nM (inactive) | 251 nM |  |
| O=[N+]([O-])c1cccc(-c2nnc3ccc(N4CCCCC4)nn23)c1 | > 7940 nM (inactive) | 631 nM |  |
| c1ccc(Cn2cc(-c3ccc4[nH]nc(-c5ccccc5)c4c3)nn2)cc1 | 63.1 nM | 100 nM |  |
| OCCCCNc1cc(-c2c[nH]c3ncccc23)cc(Cl)n1 | 15.8 nM | 126 nM |  |
| O=S(=O)(Nc1ccccn1)c1ccc(N=Cc2c(O)[nH]c3ccc4ncsc4c23)cc1 |  |  | Ki [4]: 15.8 nM |
| CNCCOc1cncc(-c2ccc3n[nH]c(C)c3c2)c1 | 20 nM | 501 nM |  |
| CC(C)(C)c1cc(NC(=O)c2cc3ccccc3s2)n(-c2cccc(OCC(=O)O)c2)n1 |  |  | Ki [3]: 794 nM |
| CN(Cc1ccccc1)c1cc(-c2c[nH]c3ncccc23)cc(Cl)n1 | 20 nM | 31.6 nM |  |
| FC(F)(F)c1ccccc1CNc1nccc(-c2c[nH]c3ncccc23)n1 |  | 5.01 nM |  |
| CN(C)CCCOc1cc(-c2ccncc2)cc2[nH]nc(N)c12 | 251 nM | 3160 nM |  |
| COCCN(CCOC)c1cc(-c2c[nH]c3ncccc23)cc(Cl)n1 | 39.8 nM | 2000 nM |  |
| CN(C)c1cc(-c2ccncc2)cc2[nH]nc(N)c12 | 79.4 nM | 631 nM |  |
